Source: patent publication US20020119136A1, “Antimicrobial peroxidase compositions” (Novozymes A/S, priority 1996, published 2002)

Experiments:
[1] = system: Pseudomonas aeruginosa ATCC 10146; experiment: Antibacterial activity of rCIP and KI against P. aeruginosa (Malthus, 2^3 factorial design); type: cell-based; conditions: components present at rCIP 0.5 POXU/ml, H2O2 0.5 mM, KI 0.5 mM; 15 min, 40 C, pH 6.0; approx 10^7 cfu/ml; untreated 1.7*10^7
Method: (§1) The antibacterial activity of rCIP was tested in phosphate buffer (pH 6.0) against Pseudomonas aeruginosa ATCC 10146 and Staphylococcus aureus ATCC 25923 with potassium iodide as electron donor, and hydrogen peroxide was added as electron acceptor. The cells (approximately 10^7 cfu/ml) were incubated with enzyme for 15 min at 40?C., and the experiment was carried out using a 2^3 factorial design reproduced two times. The bactericidal activity was determined by incubation in Malthus.

[2] = system: Staphylococcus aureus ATCC 25923; experiment: Antibacterial activity of rCIP and KI against S. aureus (Malthus, 2^3 factorial design); type: cell-based; conditions: components present at rCIP 0.5 POXU/ml, H2O2 0.5 mM, KI 0.5 mM; 15 min, 40 C, pH 6.0; untreated 2.9*10^8
Method: as §1

P. fluorescens = conditions: rCIP 3 POXU/ml, enhancing agent 5 mM, 15 min, pH 6.0, 40 C; for bactericidal activity of rCIP with the enhancing agent: glucose oxidase/glucose or 5 mM H2O2, 10^4 cfu/ml
Method: In order to avoid interference with substrate components, the experiment was carried out in a buffer instead of in a growth substrate.
The bactericidal activity was determined by plate counting and by incubation in Malthus. The detection times measured by the Malthus instrument were converted to cfu/ml by a standard curve.
Indirect Malthus measurements were used when enumerating total survival cells (Malthus Flexi M2060, Malthus Instrument Limited). 3 ml of growth medium was transferred to the outer chamber of the indirect Malthus cells, and 0.5 ml of sterile KOH (0.1 M) was transferred to the inner chamber. The cell suspensions were after enzyme treatment transferred to the outer chamber of the Malthus cell. As cells are growing in the outer chamber they produce CO2 which will dissolve in the KOH in the inner chamber and thereby change the conductance of the KOH. The amount of CO2 formed by the respiring cells surviving the enzyme treatment was used for estimating the number of viable cells. When the conductance change is measurable by the Malthus, a detection time (dt) will be recorded. The dt's were converted to colony counts by use of a calibration curve relating cfu/ml to dt (FIG. 1).

Molecule: OO [H2O2, hydrogen peroxide]
- survivors [1]: 1.2*10^7 cfu/ml
- survivors [2]: 1.3*10^8 cfu/ml

Molecule: O=C(O)CCN1c2ccccc2Sc2ccccc21 [PPT, 10-phenothiazine propionic acid]
- bactericidal activity of rCIP with the enhancing agent (P. fluorescens): slight bactericidal activity

Molecule: N#C[S-].[Na+] [NaSCN, sodium thiocyanate]
- bactericidal activity of rCIP with the enhancing agent (P. fluorescens): statistical significant bactericidal activity

Molecule: [I-].[K+] [KI, potassium iodide]
- bactericidal activity (P. fluorescens; H2O2 source, by plate counts and Malthus): 100%
- bactericidal activity of rCIP with the enhancing agent (P. fluorescens): statistical significant bactericidal activity
- survivors [1]: 2.1*10^7 cfu/ml
- survivors [2]: 2.0*10^8 cfu/ml

B1: rCIP: Coprinus cinereus, IFO 8371, recombinant peroxidase (rCIP) available from Novo Nordisk A/S (protein, UniProt P28314 21-363, looked up)
Peroxidase: QGPGGGGSVTCPGGQSTSNSQCCVWFDVLDDLQTNFYQGSKCESPVRKILRIVFHDAIGFSPALTAAGQFGGGGADGSIIAHSNIELAFPANGGLTDTVEALRAVGINHGVSFGDLIQFATAVGMSNCPGSPRLEFLTGRSNSSQPSPPSLIPGPGNTVTAILDRMGDAGFSPDEVVDLLAAHSLASQEGLNSAIFRSPLDSTPQVFDTQFYIETLLKGTTQPGPSLGFAEELSPFPGEFRMRSDALLARDSRTACRWQSMTSSNEVMGQRYRAAMAKMSVLGFDRNALTDCSDVIPSAVSNNAAPVIPGGLTVDDIEVSCPSEPFPEIATASGPLPSLAPAP
- survivors [1]: 2.6*10^7 cfu/ml
- survivors [2]: 1.6*10^8 cfu/ml
